What was measured:
Trypanosoma cruzi = assay: Antitrypanosomal activity against Trypanosoma cruzi Y blood stream trypomastigotes after 24 hrs; assay type: functional, organism-based
PBMC = assay: Cytotoxicity against human PBMC after 72 hrs by alamar blue assay; assay type: cell-based

SMILES | IC50 (Trypanosoma cruzi) [µM] | IC50 (PBMC) [µM]
CC1(C)OC2=C(C(=O)C(=O)c3ccccc32)C1Nc1ccc(F)c([N+](=O)[O-])c1 (configuration not stated) | 526 | –
CC1(C)CC2=C(O1)c1ccccc1C(=O)C2=O [NOR-BETA-LAPACHONE] | > 4800 | 2.1
CC1(C)OC2=C(C(=O)c3ccccc3C2=O)[C@@H](N=[N+]=[N-])[C@@H]1Br | 248 | 2.1
CC1(C)OC2=C(C(=O)C(=O)c3ccccc32)[C@H](n2cc(-c3ccccc3)nn2)[C@H]1Br | 313 | 2.1
CC1(C)OC2=C(C(=O)C(=O)c3ccccc32)[C@H](n2cc(-c3ccc(F)cc3)nn2)[C@H]1Br | 220 | 2.1
CC1(C)OC2=C(C(=O)C(=O)c3ccccc32)C1OC1CCCCC1 (configuration not stated) | 558 | 2.1
O=C1c2ccccc2C(=O)c2c1ccc1nc(-c3cccc4ccccc34)[nH]c21 | > 4000 | 2.1
O=C1c2ccccc2C(=O)c2c1ccc1nc(-c3ccccc3)[nH]c21 | > 2000 | 12
CC(C)=CCC1=C(OC2(CC=C(C)C)C(=O)C(=O)c3ccccc3C2=O)C(=O)c2ccccc2C1=O (configuration not stated) | 233 | 12
Cc1ccc([N+](=O)[O-])cc1NC1C2=C(OC1(C)C)c1ccccc1C(=O)C2=O (configuration not stated) | 284 | 12
CC1(C)OC2=C(C(=O)C(=O)c3ccccc32)[C@H](n2cc(-c3ccc(Br)cc3)nn2)[C@H]1Br | 440 | 2.1
CC(C)=CCC1=C(O)C(=O)c2ccccc2C1=O [LAPACHOL] | – | 2.1
CC1(C)CCC2=C(O1)c1ccccc1C(=O)C2=O [LAPACHONE] | 392 | 2.1
O=C1c2ccccc2C(=O)c2c1ccc1nc(-c3ccc(-c4ccccc4)cc3)[nH]c21 | > 4000 | 12
Cc1ccc(-c2nc3ccc4c(c3[nH]2)C(=O)c2ccccc2C4=O)cc1 | > 4000 | 12
CC(C)OC1C2=C(OC1(C)C)c1ccccc1C(=O)C2=O (configuration not stated) | 268 | 2.1
CC(C)=CC1=C(O)C(=O)c2ccccc2C1=O | – | 2.1

Now from value to compound, other results behind:

IC50 (Trypanosoma cruzi) [µM] | SMILES | IC50 (PBMC) [µM]
23.4 | CC1(C)OC2=C(C(=O)C(=O)c3ccccc32)[C@H](N=[N+]=[N-])[C@H]1Br | 2.1
55.6 | CC1(C)OC2=C(C(=O)C(=O)c3ccccc32)C1Nc1ccccc1[N+](=O)[O-] (configuration not stated) | 2.1
59.6 | COc1ccc(NC2C3=C(OC2(C)C)c2ccccc2C(=O)C3=O)c([N+](=O)[O-])c1 (configuration not stated) | 2.1
156 | Cc1cc([N+](=O)[O-])ccc1NC1C2=C(OC1(C)C)c1ccccc1C(=O)C2=O (configuration not stated) | 2.1
106 | COc1ccc(-c2cn([C@H]3C4=C(OC(C)(C)[C@@H]3Br)c3ccccc3C(=O)C4=O)nn2)cc1 | 2.1
24.9 | CC1(C)OC2=C(C(=O)C(=O)c3ccccc32)C1Nc1ccc(Br)cc1Br (configuration not stated) | 2.1
47.2 | CC(C)COC1C2=C(OC1(C)C)c1ccccc1C(=O)C2=O (configuration not stated) | 2.1
43.8 | CC1(C)OC2=C(C(=O)C(=O)c3ccccc32)C1Nc1ccc(Cl)c(Cl)c1 (configuration not stated) | 2.1

Reference: ChEMBL document CHEMBL1158544, “The evaluation of quinonoid compounds against Trypanosoma cruzi: synthesis of imidazolic anthraquinones, nor-beta-lapachone derivatives and beta-lapachone-based 1,2,3-triazoles” (Bioorg Med Chem, 2010)
